Measured values: patent US11426397B2, “Piperidinyl- and piperazinyl-substituted heteroaromatic carboxamides as modulators of GPR6” (TAKEDA PHARMACEUTICAL COMPANY LIMITED, priority 2017, dated 2022)

Key:
[1] = biological target: T1, GPR6 receptor expressed in CHO-K1 cells (Homo sapiens, UniProt P46095); assay: In vitro inhibition of cAMP (EC50), cell-based HTRF cAMP assay; details: inhibition of constitutive cAMP activity of GPR6 in CHO-K1 cells
T1 construct: expressed in transfected cells
In short: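 Tetracycline-inducible CHO-K1 line, GPR6 expression induced 20 h with 2 μg/mL doxycycline. Compounds incubated 45 min at 37 °C in Ringer's buffer (pH 7.4) with 0.5% fatty acid free BSA and 300 μM IBMX. Constitutive cAMP read by Lance HTRF; EC50 from four-parameter logistic fit.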

[2] = tested on: haloperidol-induced catalepsy; assay: In vivo Parkinson's disease model, haloperidol-induced catalepsy; set-up: species or system mice; details: mouse catalepsy model, PO
Excerpt: II. In Vivo Parkinson's Disease Model Haloperidol-Induced Catalepsy The motor symptoms of Parkinson's disease include akinesia, bradykinesia, rigidity, tremor and postural abnormalities and are associated with the loss of nigral dopaminergic cells and a decline in striatal dopamine levels. Administration of haloperidol to rodents leads to a transient Parkinsonian-like state that is reversed by the administration of levodopa and other drugs that have been clinically validated for the treatment of Parkinson's disease. See Duty, S. & Jenner, P. Br. J. Pharmacol. 164:1357-1391 (2011). Haloperidol antagonizes dopamine D2, and to a lesser extent, D1 receptors in medium spiny neurons that comprise the indirect and direct pathways of the motor circuit, respectively. The resultant block of striatal dopamine transmission results in abnormal downstream firing within the basal ganglia circuits that is manifest as symptoms of muscle rigidity and catalepsy. Catalepsy has been postulated to reflect the clinical features of Parkinson's disease, whereby patients experience an inability to initiate movements. Male C57B16 mice weighing 25-35 g are used. Catalepsy is induced by the subcutaneous (sc) administration of the dopamine receptor antagonist haloperidol (0.45 mg/kg) at least 30 minutes before testing the animals on a vertical grid test. For this test, the rats or mice are placed on a wire mesh cover of a 25 cm×43 cm plexiglass cage placed at an angle of about 70 degrees with the bench table. The subject is placed on the grid with all four legs abducted and extended (“frog posture”). The use of such an unnatural posture is essential for the specificity of this test for catalepsy. The time span from placement of the paws until the first complete removal of one paw (descent latency) is measured maximally for 120 seconds for rats. For mice, the front paws of the mouse is placed on a horizontal metal bar raised 2″ above a Plexiglas platform and time is recorded for up to 30 seconds per trial. The test ends when the animal's front paws return to the platform or after 30 seconds. The test is repeated three times and the average of the three trials is reported as the intensity index of catalepsy. Animals evaluated at 30 minutes after dosing are reevaluated at 60 or 90 minutes post dosing of haloperidol. Efficacy of GPR6 modulators to reverse haloperidol induced catalepsy is measured 30 minutes, 60 minutes, and/or 90 minutes after dosing the subjects with 0.45 mg/kg ip (intraperitoneal injection) of haloperidol along with the GPR6 modulator test compound. A representative number of compounds of Formula 1 are administered in a dose range from 0.1 to 100 mg/kg (po in 0.5% methyl cellulose) in conjunction with haloperidol. […]

T1 sequence (P46095 whole entry): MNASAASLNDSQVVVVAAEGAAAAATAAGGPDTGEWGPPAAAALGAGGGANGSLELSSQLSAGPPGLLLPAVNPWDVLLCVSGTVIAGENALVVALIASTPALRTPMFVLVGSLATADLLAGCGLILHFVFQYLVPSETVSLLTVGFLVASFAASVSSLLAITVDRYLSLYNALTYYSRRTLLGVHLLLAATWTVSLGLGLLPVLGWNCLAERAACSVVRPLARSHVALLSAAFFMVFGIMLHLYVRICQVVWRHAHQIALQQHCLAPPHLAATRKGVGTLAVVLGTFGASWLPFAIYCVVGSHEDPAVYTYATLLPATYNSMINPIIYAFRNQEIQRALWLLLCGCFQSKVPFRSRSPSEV

| SMILES | pEC50, in vitro inhibition of cAMP [1] | melting point [°C] | % reversal ([2]; dose 1 mpk, time 30 minutes) [%] | % reversal ([2]; dose 1 mpk, time 90 minutes) [%] | % reversal ([2]; dose 1 mpk, time 60 minutes) [%] | % reversal ([2]; dose 3 mpk, time 60 minutes) [%] |
| --- | --- | --- | --- | --- | --- | --- |
| COc1ccccc1C(=O)Nc1cc(S(C)(=O)=O)ccc1N1CCC(Oc2ccc(F)cc2F)CC1 [Example 6, N-(2-(4-(2,4-difluorophenoxy)piperidin-1-yl)-5-(methylsulfonyl)phenyl)-2-methoxybenzamide] | 7.3 | 201 |  |  |  |  |
| COc1ccncc1C(=O)Nc1cc(S(C)(=O)=O)ccc1N1CCC(Oc2ccc(F)cc2F)CC1 [Example 7, N-(2-(4-(2,4-difluorophenoxy)piperidin-1-yl)-5-(methylsulfonyl)phenyl)-4-methoxynicotinamide] | 7.4 | 173 |  |  |  |  |
| COc1ncccc1C(=O)Nc1cnc(C)nc1N1CCC(Oc2ccc(F)cc2F)CC1 [Example 18, N-(4-(4-(2,4-difluorophenoxy)piperidin-1-yl)-2-methylpyrimidin-5-yl)-2-methoxynicotinamide] | 6.8 |  | 53 | 37 |  |  |
| COc1cc(N2CCC(Oc3ccc(F)cc3F)CC2)c(NC(=O)c2cccnc2OC)cn1 [Example 20, N-(4-(4-(2,4-difluorophenoxy)piperidin-1-yl)-6-methoxypyridin-3-yl)-2-methoxynicotinamide] | 6.9 | 138 |  |  |  |  |
| COc1ncccc1C(=O)Nc1cnc(C(=O)N(C)C)cc1N1CCC(Oc2ccc(F)cc2F)CC1 [Example 31, 4-(4-(2,4-difluorophenoxy)piperidin-1-yl)-5-(2-methoxynicotinamido)-N,N-dimethylpicolinamide] | 7.1 |  |  |  | 47 |  |
| COc1nc(C)ccc1C(=O)Nc1cnc(C(=O)N(C)C)cc1N1CCC(Oc2ccc(F)cc2F)CC1 [Example 283, 4-(4-(2,4-difluorophenoxy)piperidin-1-yl)-5-(2-methoxy-6-methylnicotinamido)-N,N-dimethylpicolinamide] | 6.8 |  |  |  |  | 47 |
